Source: ChEMBL document CHEMBL1201862, “PubChem BioAssay data set” (2004)
Calls of active or inactive are those of the source.

Key:
[1] = HEK293 cell cytotoxicity, dose response, cytotoxicity control, cherry-picks, set 5 (AID 1053117); assay type: functional, cell-based
[2] = human group III sPLA2 inhibitors, dose response, biochemical, QFRET, IC50 (AID 743457);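 also: green fluorescence rise as the enzyme cleaves BODIPY PC-A2 in liposomes; potency for inhibition of the enzyme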
fMet-Leu-Phe receptor = fMet-Leu-Phe receptor (Homo sapiens, UniProt P21462); assay: FPR ligands, dose response (AID 519); assay type: functional
[3] = cytotoxicity toward NIH3T3 fibroblasts, dose response, counter-screen, cell-based, ATP luminescence, mouse fibroblasts (AID 2010); assay type: functional;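 also: cells exposed to compound for about 90 hours before reading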
[4] = molecular target: T1, Methionyl-tRNA synthetase, putative (Trypanosoma brucei brucei, UniProt Q38C91); assay type: functional, Trypanosoma brucei brucei strain 927/4 GUTat10.1
T1 sequence (Q38C91 whole entry): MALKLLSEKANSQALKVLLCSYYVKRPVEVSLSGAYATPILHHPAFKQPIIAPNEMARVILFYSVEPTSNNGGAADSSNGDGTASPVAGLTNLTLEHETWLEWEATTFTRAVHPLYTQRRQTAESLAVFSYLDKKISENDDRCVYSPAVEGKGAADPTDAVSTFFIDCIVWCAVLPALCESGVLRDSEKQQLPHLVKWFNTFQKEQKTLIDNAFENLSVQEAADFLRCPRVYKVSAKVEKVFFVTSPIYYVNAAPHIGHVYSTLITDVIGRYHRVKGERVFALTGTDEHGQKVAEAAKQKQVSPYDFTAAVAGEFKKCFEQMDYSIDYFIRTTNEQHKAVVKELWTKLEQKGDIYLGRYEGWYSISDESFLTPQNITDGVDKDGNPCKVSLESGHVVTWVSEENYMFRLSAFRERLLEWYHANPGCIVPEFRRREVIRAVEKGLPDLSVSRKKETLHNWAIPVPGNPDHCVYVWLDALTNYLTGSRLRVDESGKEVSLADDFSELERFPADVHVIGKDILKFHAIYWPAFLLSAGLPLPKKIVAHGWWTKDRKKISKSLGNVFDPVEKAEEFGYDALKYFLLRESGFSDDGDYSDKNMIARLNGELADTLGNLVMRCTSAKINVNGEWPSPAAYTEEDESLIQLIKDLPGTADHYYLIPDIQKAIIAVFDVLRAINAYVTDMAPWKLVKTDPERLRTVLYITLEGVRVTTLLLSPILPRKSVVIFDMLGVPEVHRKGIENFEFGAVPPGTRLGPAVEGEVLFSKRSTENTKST

[5] = molecular target: Disintegrin and metalloproteinase domain-containing protein 17 (Homo sapiens, UniProt P78536); assay: ADAM17 protease inhibitors, dose response, counter-screen for ADAM10 exosite inhibitor project, biochemical, quenched FRET substrate (AID 743253)
[6] = Counterscreen for inhibitors of Trypanosoma brucei methionyl tRNA synthetase (MetRS): Luminescence-based cell-based high throughput dose response assay to identify compounds that are cytotoxic to Jurkat human T lymphocyte cells.; assay type: functional
[7] = ADAM10 inhibitors, peptide cleavage, dose response, biochemical, QFRET (AID 743254);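 also: ADAM10 enzyme with the DM2 quenched FRET peptide as substrate; EDANS fluorescence gain as the protease cuts the substrate; inhibitor potency against ADAM10 proteolytic activity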
[8] = inhibitors of intracellular T. cruzi replication, confirmation, NIH3T3 host cells, beta-gal luminescence (AID 2044); assay type: functional, cell-based;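 also: intracellular parasites grown in NIH/3T3 mouse fibroblasts as host cells; luminescent beta-galactosidase reporter signal from transgenic T. cruzi replicating inside host cells; inhibitors lower the luminescence signal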
[9] = molecular target: T1, Methionyl-tRNA synthetase, putative; assay type: functional, Trypanosoma brucei brucei strain 927/4 GUTat10.1; remark: listed apart in the source
Paired box protein Pax-8 = Paired box protein Pax-8 (Homo sapiens, UniProt Q06710); assay: inhibitors of PAX8-driven TPO luciferase reporter, dose response, RMG-I cells, cherry-pick (AID 687027); assay type: functional, cell-based;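 also: luciferase reporter driven by Pax8 target thyroperoxidase promoter measured by SteadyGlo luminescence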
BJ = assay: cytotoxicity toward Ras-transformed BJeLR fibroblasts, dose response, cell-based, alamar blue fluorescence, cherrypicked samples (AID 2631); assay type: functional; conditions: Homo sapiens;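 also: confirmatory dose-response assay in RAS-dependent BJ fibroblasts engineered with TERT, LT and ST, with cytotoxicity read by fluorescence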
[10] = HepG2 cell cytotoxicity, dose response, cytotoxicity control, CellTiter-Glo luminescence, cherry-pick, set 2 (AID 743395); assay type: functional
Major prion protein = Major prion protein (Homo sapiens, UniProt P04156); assay type: functional, cell-based
[11] = HEK293T cytotoxicity, dose response, cytotoxicity control for miR-122 modulator project, cell-based, activator set, cherry-pick (AID 720690); assay type: functional;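 also: HEK293T human cells scored for general mammalian cytotoxicity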
Caspase-6 = molecular target: T2, Caspase-6 (Homo sapiens, UniProt P55212); assay: human caspase-6 inhibitors, dose response, biochemical, VEID-R110 fluorescence, cherry-pick (AID 720632)
T2 sequence (P55212 whole entry): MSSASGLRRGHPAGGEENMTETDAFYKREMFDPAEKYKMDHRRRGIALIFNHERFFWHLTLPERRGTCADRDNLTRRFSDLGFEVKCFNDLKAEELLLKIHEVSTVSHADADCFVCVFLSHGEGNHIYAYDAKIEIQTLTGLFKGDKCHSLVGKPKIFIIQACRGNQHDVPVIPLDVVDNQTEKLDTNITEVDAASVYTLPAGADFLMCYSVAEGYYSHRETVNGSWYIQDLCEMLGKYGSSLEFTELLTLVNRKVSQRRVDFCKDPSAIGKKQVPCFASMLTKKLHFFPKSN

[12] = NIH-3T3 fibroblast cytotoxicity, dose response, cytotoxicity control, cell-based, fluorescence, Alamar Blue, secondary assay (AID 2327); assay type: functional;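 also: NIH-3T3 mouse fibroblasts cultured with fluconazole at 8 µg/mL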
Large T antigen = Large T antigen (Simian virus 40, UniProt P03070); assay type: functional, Betapolyomavirus macacae;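 also: Confirmatory-stage PubChem screen for compounds that inhibit SV40 T antigen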
[13] = C. albicans growth with fluconazole, confirmation, fluorescence, retest (AID 2467); assay type: functional, cell-based
Albumin = Albumin (Bos taurus, UniProt P02769); assay: Counterscreen for inhibitors of T-cell receptor (TCR)-CD3 interaction: Fluorescence-based biochemical high throughput dose response assay to identify inhibitors of T-cell receptor (TCR)-CD3 interaction using a TAMRA-labeled BSA probe.; assay type: functional
[14] = inhibitors of CMV-promoter luciferase reporter, dose response, counter-screen for Pax8 inhibitor project, cell-based, HEK293, luminescence, dry powder (AID 743020); assay type: functional
[15] = HEK293T cytotoxicity, dose response, cytotoxicity control for miR-122 modulator project, cell-based, inhibitor set, cherry-pick, set 2 (AID 720697); assay type: functional
Fatty acid synthase = Fatty acid synthase (Homo sapiens, UniProt P49327); assay: FAS thioesterase domain inhibitors, SAR follow-up, biochemical, endpoint fluorescence intensity, powder samples (AID 652164); assay type: functional
[16] = HEK293T cell cytotoxicity, dose response, cytotoxicity control, luminescence plate reader, powder samples, set 4 (AID 651863); assay type: functional, cell-based; conditions: HEK293
[17] = molecular target: Endoplasmic reticulum aminopeptidase 1 (Homo sapiens, UniProt Q9NZ08); assay: ERAP1 aminopeptidase inhibitors, dose response, biochemical, cherry-pick, set 2, plate reader (AID 743314)
[18] = A Cell-Based Confirmatory Screen for Compounds that Inhibit VEEV, TC-83 (3).; assay type: functional
[19] = AlphaScreen signal interference by compounds, dose response, artefact control for ARNT/TACC3 disruptor project, biochemical, dual-tagged ARNT, dry powder (AID 720564)
[20] = HeLa cell cytotoxicity, dose response, cytotoxicity control, CellTiter-Glo luminescence, dry powder, set 2 (AID 720593); assay type: functional, cell-based
[21] = molecular target: T3, Trace amine-associated receptor 1 (Homo sapiens, UniProt Q96RJ0); assay: Counterscreen for antagonists of the human trace amine associated receptor 1 (hTAAR1): Fluorescence-based cell-based high throughput dose response assay to identify TAAR1 Agonists.; assay type: functional
T3 sequence (Q96RJ0 whole entry): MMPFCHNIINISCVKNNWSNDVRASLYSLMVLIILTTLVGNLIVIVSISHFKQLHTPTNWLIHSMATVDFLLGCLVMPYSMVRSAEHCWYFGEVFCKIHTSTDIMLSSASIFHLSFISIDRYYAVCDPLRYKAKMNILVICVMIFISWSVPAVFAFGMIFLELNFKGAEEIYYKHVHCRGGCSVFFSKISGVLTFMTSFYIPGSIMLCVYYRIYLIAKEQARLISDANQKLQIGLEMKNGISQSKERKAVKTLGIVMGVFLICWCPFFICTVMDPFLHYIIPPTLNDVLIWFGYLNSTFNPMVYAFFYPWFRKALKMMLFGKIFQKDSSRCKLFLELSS

[22] = Counterscreen for […] of the human trace amine associated receptor 1 (TAAR1): Fluorescence-based cell-based high throughput dose response assay to identify nonselective Ga16 agonists.; assay type: functional
[23] = molecular target: T3, Trace amine-associated receptor 1; assay: Fluorescence-based cell-based high throughput dose response assay to identify antagonists of the human trace amine associated receptor 1 (TAAR1).; assay type: functional
[24] = Counterscreen for antagonists of the human trace amine associated receptor 1 (hTAAR1): Fluorescence-based cell-based high throughput dose response assay to identify nonselective Ga16 antagonists.; assay type: functional

For `Cc1cccc(NC(=O)c2ccc(S(=O)(=O)N3CCCCC3)cc2)n1`, the AC50 [1] was > 52 µM (inactive).

For `CCCCN=C(S)NNC(=O)c1csc(C)c1C`, the IC50 [2] was > 122 µM (inactive).

With `CCC(Sc1nc2c(c(=O)[nH]1)CCC2)C(=O)Nc1cccc(OC)c1` (centres undefined) the Ki (fMet-Leu-Phe receptor) was 35.5 µM (inactive).

In the case of `COc1ccccc1NS(=O)(=O)c1cccc(NC(=O)Nc2cccc(Cl)c2)c1`, the EC50 [3] is reported as > 60 µM (not active), the IC50 [4] is reported as 12 µM (inactive) and the IC50 [5] is reported as > 69.5 µM (inactive). For the same molecule, the IC50 [6] was 41.1 µM (inactive), the IC50 [7] was 12 µM (inactive) and the EC50 [8] was 2.16 µM (active). The IC50 [9] was 15.7 µM (inactive).

In the case of `COc1ccc(C(=O)c2cc([N+](=O)[O-])ccc2N2CCOCC2)cc1`, the AC50 (Paired box protein Pax-8) is reported as 3.21 µM (active), the EC50 (BJ) is reported as < 0.104 µM (active) and the AbsAC35_uM [10] is reported as 60.09 µM.

For `Cc1cc(NC(=O)CCC(=O)N(c2ccccc2)C(C(=O)NC2CCCC2)c2cccs2)no1` (centres undefined), the IC50 (Major prion protein) was 16.2 µM (inactive) and the IC50 (cells) was > 138 µM (inactive).

In the case of `CN[C@H]1C[C@H]2c3[nH]c4ccc(-c5ccc(OC)cc5)cc4c3CCN2C(=O)[C@H]1[C@H](C)O`, the AC50 [11] is reported as 15.8 µM (active).

For `C/C(=N/NC(=O)c1cc(O)c(O)c(O)c1)c1ccc([N+](=O)[O-])cc1`, the AC50 (Caspase-6) was 27.5 µM (active), the EC50 [12] was > 160 µM (inactive) and the IC50 (Large T antigen) was 8.68 µM (active). For the same molecule, the EC50 [13] was > 38 µM (not active) and the IC50 (Albumin) was > 94.1 µM (inactive).

With `C[C@@H]1CCCCO[C@@H](CN(C)C(=O)Nc2ccc(F)cc2)[C@H](C)CN([C@@H](C)CO)C(=O)c2cc(NC(=O)Nc3ccc(C(F)(F)F)cc3)ccc2O1` the AC50 [14] was 67.7 µM (active) and the AC50 (Paired box protein Pax-8) was 4.11 µM (active).

With `CCC(=O)NC[C@@H]1[C@@H](c2ccc(C3=CCCC3)cc2)[C@@H](CO)N1C(C)=O` the AC50 [15] was 9.42 µM (active).

With `CC(=O)Nc1nc(-c2ccc(S(=O)(=O)N3CCSCC3)cc2)cs1` the IC50 (Fatty acid synthase) was > 80 µM (inactive).

For `COC(=O)C(C(=O)OC)c1cc(NS(=O)(=O)c2c(C)cc(C)cc2C)c2ccccc2c1O`, the AC50 [16] was 27 µM (active).

For `COC(=O)[C@H]1[C@H](CO)[C@H]2Cn3c(ccc(-c4ccncc4)c3=O)[C@H]2N1Cc1ccccc1F`, the AC50 [17] was 10.2 µM (active).

In the case of `CC(C)N1CCN(Cc2nc3ccc([N+](=O)[O-])cc3c(=O)n2-c2ccccc2F)CC1`, the IC50 [18] is reported as 3.13 µM (active).

In the case of `O=C(Nc1nc(-c2ccncc2)cs1)c1cccc(S(=O)(=O)N2CCOCC2)c1`, the AC50 [19] is reported as 110 µM (active) and the AC50 [20] is reported as > 52 µM (inactive).

For `Cc1cc(/C=N\NC(=O)CC(=O)NC2CCCCC2)c(C)n1-c1ccc(Cl)c(Cl)c1`, the EC50 [21] was 7.54 µM (active), the EC50 [22] was > 29.9 µM (inactive) and the IC50 [23] was 0.915 µM (active). For the same molecule, the IC50 [24] was 15.3 µM (inactive).
